We go through 32 molecules from US10035760B2, “Inhibitors of human immunodeficiency virus replication” (priority 2013, dated 2018).

pEC50: −log10 of the molar value. Where two headings read alike, the source gives them in different places.

This test relates to recombinant NL4-3 virus (Renilla luciferase) in MT-2 cells. Nature of the test: HIV cell culture assay (antiviral activity, luciferase readout in infected MT-2 cells). To be noted: Renilla. The format is cell-based. Put shortly:
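Nef-deleted NL4-3 carrying Renilla luciferase, produced by 293T transfection, used to infect MT-2 cells for 4–5 days with serial compound dilutions. Live-cell luciferase signal read as infection marker; EC50 from exponential median-effect equation.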

[1] abbreviates: NL43, read-out: Activity, antiviral activity class, recombinant NL4-3 Renilla luciferase virus in MT-2 cells.
Where [2] appears, read: NL43, recombinant NL4-3 Renilla luciferase virus in MT-2 cells.

For the molecule `CCN(C(=O)[C@H](Cc1ccccc1)NC(=O)NS(=O)(=O)c1cccc(-c2ccsc2Cl)c1C)c1ccc(OC)cc1` [Example 156, (S)-2-(3-((3-(2-chlorothiophen-3-yl)-2-methylphenyl)sulfonyl)ureido)-N-ethyl-N-(4-methoxyphenyl)-3-phenylpropanamide], under setting [1], the pEC50 is 6.00 to 7.00.
For `CCN(C(=O)[C@H](Cc1ccccc1)NC(=O)NS(=O)(=O)c1cccc(-c2ccsc2)c1C)c1ccc(OC)cc1` [Example 157, (S)—N-ethyl-N-(4-methoxyphenyl)-2-(3-((2-methyl-3-(thiophen-3-yl)phenyl)sulfonyl)ureido)-3-phenylpropanamide], the pEC50 under setting [1] is 6.00 to 7.00.
In the case of `CCN(C(=O)[C@H](Cc1ccccc1)NC(=O)NS(=O)(=O)c1cccc(-c2ccnn2C)c1C)c1ccc(OC)cc1` [Example 158, (S)—N-ethyl-N-(4-methoxyphenyl)-2-(3-((2-methyl-3-(1-methyl-1H-pyrazol-5-yl)phenyl)sulfonyl)ureido)-3-phenylpropanamide], the pEC50 under setting [1] was 6.00 to 7.00 and the pEC50 under setting [2] was 6.64.
Take `CCN(C(=O)[C@H](Cc1ccccc1)NC(=O)NS(=O)(=O)c1cccc(-c2cnoc2)c1C)c1ccc(OC)cc1` [Example 159, (S)—N-ethyl-2-(3-((3-(isoxazol-4-yl)-2-methylphenyl)sulfonyl)ureido)-N-(4-methoxyphenyl)-3-phenylpropanamide]: the pEC50 under setting [1] is 6.00 to 7.00.
In the case of `CCN(C(=O)[C@H](Cc1ccccc1)NC(=O)NS(=O)(=O)c1cccc(-c2csc(C(=O)O)c2)c1C)c1ccc(OC)cc1` [Example 160], the pEC50 was 5.00 to 6.00 under setting [1] and 5.25 under setting [2].
Take `CCN(C(=O)[C@H](Cc1ccccc1)NC(=O)NS(=O)(=O)c1cccc(-c2csc3ccccc23)c1C)c1ccc(OC)cc1` [Example 161, (S)-2-(3-((3-(benzo[b]thiophen-3-yl)-2-methylphenyl)sulfonyl)ureido)-N-ethyl-N-(4-methoxyphenyl)-3-phenylpropanamide]: under setting [1], the pEC50 was 5.00 to 6.00.
With `CCN(C(=O)[C@H](Cc1ccccc1)NC(=O)NS(=O)(=O)c1cccc(-c2cc3c(OC)cccc3[nH]2)c1C)c1ccc(OC)cc1` [Example 162, (S)—N-ethyl-2-(3-((3-(4-methoxy-1H-indol-2-yl)-2-methylphenyl)sulfonyl)ureido)-N-(4-methoxyphenyl)-3-phenylpropanamide], the pEC50 under setting [1] was 5.00 to 6.00.
In the case of `Cc1cccc(N(C)C(=O)[C@H](Cc2ccccc2)NC(=O)NS(=O)(=O)c2ccccc2C)c1` [Example 163, (S)—N-methyl-3-phenyl-N-(m-tolyl)-2-(3-(o-tolylsulfonyl)ureido)propanamide], the pEC50 under setting [1] was 6.00 to 7.00.
On to `Cc1ccccc1S(=O)(=O)NC(=O)N[C@@H](Cc1ccccc1)C(=O)N(C)c1ccc(Cl)cc1` [Example 164, (S)—N-(4-chlorophenyl)-N-methyl-3-phenyl-2-(3-(o-tolylsulfonyl)ureido)propanamide], for which the pEC50 under setting [1] is 6.00 to 7.00.
Still for that read-out and setting: as for `COc1ccccc1N(C)C(=O)[C@H](Cc1ccccc1)NC(=O)NS(=O)(=O)c1ccccc1C` [Example 165, (S)—N-(2-methoxyphenyl)-N-methyl-3-phenyl-2-(3-(o-tolylsulfonyl)ureido)propanamide], the figure is 5.00 to 6.00.
Turning to `COc1cccc(N(C)C(=O)[C@H](Cc2ccccc2)NC(=O)NS(=O)(=O)c2ccccc2C)c1` [Example 166, (S)—N-(3-methoxyphenyl)-N-methyl-3-phenyl-2-(3-(o-tolylsulfonyl)ureido)propanamide], the pEC50 runs as follows: under setting [1], 6.00 to 7.00; under setting [2], 6.62.
With `COc1ccc(N(C)C(=O)[C@H](Cc2ccccc2)NC(=O)NS(=O)(=O)c2ccccc2C)cc1` [Example 167, (S)—N-(4-methoxyphenyl)-N-methyl-3-phenyl-2-(3-(o-tolylsulfonyl)ureido)propanamide], under setting [1], the pEC50 was greater than 7.00.
Still for that read-out and setting: then `Cc1ccccc1S(=O)(=O)NC(=O)N[C@@H](Cc1ccccc1)C(=O)N(C)c1cccc(F)c1` [Example 168, (S)—N-(3-fluorophenyl)-N-methyl-3-phenyl-2-(3-(o-tolylsulfonyl)ureido)propanamide], with 6.00 to 7.00; and `Cc1ccccc1S(=O)(=O)NC(=O)N[C@@H](Cc1ccccc1)C(=O)N(C)c1ccc(F)cc1` [Example 169, (S)—N-(4-fluorophenyl)-N-methyl-3-phenyl-2-(3-(o-tolylsulfonyl)ureido)propanamide], with 6.00 to 7.00.
For the molecule `Cc1ccccc1S(=O)(=O)NC(=O)N[C@@H](Cc1ccccc1)C(=O)N1CCCc2ccccc21` [Example 170, (S)—N-((1-(3,4-dihydroquinolin-1(2H)-yl)-1-oxo-3-phenylpropan-2-yl)carbamoyl)-2-methylbenzenesulfonamide], under setting [1], the pEC50 is 5.00 to 6.00.
`COc1ccc2c(c1)CCCN2C(=O)[C@H](Cc1ccccc1)NC(=O)NS(=O)(=O)c1ccccc1C` [Example 171, (S)—N-((1-(6-methoxy-3,4-dihydroquinolin-1(2H)-yl)-1-oxo-3-phenylpropan-2-yl)carbamoyl)-2-methylbenzenesulfonamide]: the pEC50 under setting [1] was 6.00 to 7.00.
Take `COc1ccc2c(c1)OCCN2C(=O)[C@H](Cc1ccccc1)NC(=O)NS(=O)(=O)c1ccccc1C` [Example 172, (S)—N-((1-(7-methoxy-2H-benzo[b][1,4]oxazin-4(3H)-yl)-1-oxo-3-phenylpropan-2-yl)carbamoyl)-2-methylbenzenesulfonamide]: the pEC50 under setting [1] was 6.00 to 7.00 and the pEC50 under setting [2] is 6.57.
On to `Cc1ccccc1S(=O)(=O)NC(=O)N[C@@H](Cc1ccccc1)C(=O)N1CCCc2cc(O)ccc21` [Example 173, (S)—N-((1-(6-hydroxy-3,4-dihydroquinolin-1 (2H)-yl)-1-oxo-3-phenylpropan-2-yl)carbamoyl)-2-methylbenzenesulfonamide], for which the pEC50 under setting [1] is 6.00 to 7.00.
For `Cc1ccccc1S(=O)(=O)NC(=O)N[C@@H](Cc1ccccc1)C(=O)N1CCc2ccccc21` [Example 174, (S)—N-((1-(indolin-1-yl)-1-oxo-3-phenylpropan-2-yl)carbamoyl)-2-methylbenzenesulfonamide], the pEC50 is, setting by setting: under setting [1], 5.00 to 6.00; under setting [2], 5.42.
Turning to `CCN(C(=O)[C@H](Cc1ccccc1)NC(=O)NS(=O)(=O)c1ccccc1C)c1ccc(C)c(C)c1` [Example 175, (S)—N-(3,4-dimethylphenyl)-N-ethyl-3-phenyl-2-(3-(o-tolylsulfonyl)ureido)propanamide], under setting [1], the pEC50 is greater than 7.00.
Consider `Cc1ccccc1S(=O)(=O)NC(=O)N[C@@H](Cc1ccccc1)C(=O)N(C)c1nc2ccccc2s1` [Example 176, (S)—N-(benzo[d]thiazol-2-yl)-N-methyl-3-phenyl-2-(3-(o-tolylsulfonyl)ureido)propanamide], for which the pEC50 under setting [1] was 4.00 to 5.00.
With `CCN(C(=O)[C@H](Cc1ccccc1)NC(=O)NS(=O)(=O)c1ccccc1C)c1ccc2ccccc2c1` [Example 177, (S)—N-ethyl-N-(naphthalen-2-yl)-3-phenyl-2-(3-(o-tolylsulfonyl)ureido)propanamide], under setting [1], the pEC50 is greater than 7.00.
In the case of `CCN(C(=O)[C@H](Cc1ccccc1)NC(=O)NS(=O)(=O)c1ccccc1C)c1ccc(OC(F)(F)F)cc1` [Example 178, (S)—N-ethyl-3-phenyl-2-(3-(o-tolylsulfonyl)ureido)-N-(4-(trifluoromethoxy)phenyl)propanamide], the pEC50 was greater than 7.00 under setting [1] and 7.10 under setting [2].
Turning to `Cc1ccccc1S(=O)(=O)NC(=O)N[C@@H](Cc1ccccc1)C(=O)N(C)C1CCCCC1` [Example 179, (S)—N-cyclohexyl-N-methyl-3-phenyl-2-(3-(o-tolylsulfonyl)ureido)propanamide], the pEC50 under setting [1] is 5.00 to 6.00.
With `Cc1ccccc1S(=O)(=O)NC(=O)N[C@@H](Cc1ccccc1)C(=O)N(C)Cc1ccccn1` [Example 180, (S)—N-methyl-3-phenyl-N-(pyridin-2-ylmethyl)-2-(3-(o-tolylsulfonyl)ureido)propanamide], the pEC50 under setting [1] is 5.00 to 6.00.
Turning to `CCN(C(=O)[C@H](Cc1ccccc1)NC(=O)NS(=O)(=O)c1ccccc1C)c1ccc(Cl)cc1` [Example 181, (S)—N-(4-chlorophenyl)-N-ethyl-3-phenyl-2-(3-(o-tolylsulfonyl)ureido)propanamide], the pEC50 under setting [1] is 6.00 to 7.00.
Take `CCN(C(=O)[C@H](Cc1ccccc1)NC(=O)NS(=O)(=O)c1ccccc1C)c1ccc(Cl)c(C(F)(F)F)c1` [Example 182, (S)—N-(4-chloro-3-(trifluoromethyl)phenyl)-N-ethyl-3-phenyl-2-(3-(o-tolylsulfonyl)ureido)propanamide]: the pEC50 under setting [1] was 6.00 to 7.00.
Regarding `CCCN(C(=O)[C@H](Cc1ccccc1)NC(=O)NS(=O)(=O)c1ccccc1C)c1ccc(Cl)c(Cl)c1` [Example 183, (S)—N-(3,4-dichlorophenyl)-3-phenyl-N-propyl-2-(3-(o-tolylsulfonyl)ureido)propanamide], the pEC50 reads like this: under setting [1], 6.00 to 7.00; under setting [2], 6.51.
For the molecule `CCN(C(=O)[C@H](Cc1ccccc1)NC(=O)NS(=O)(=O)c1ccccc1C)c1ccc(OC)cc1` [Example 184, (S)—N-ethyl-N-(4-methoxyphenyl)-3-phenyl-2-(3-(o-tolylsulfonyl)ureido)propanamide], the pEC50 under setting [1] was greater than 7.00.
As for `Cc1ccccc1S(=O)(=O)NC(=O)N[C@@H](Cc1ccccc1)C(=O)N1CCc2cc(S(=O)(=O)N(C)C)ccc21` [Example 185, (S)—N,N-dimethyl-1-(3-phenyl-2-(3-(o-tolylsulfonyl)ureido)propanoyl)indoline-5-sulfonamide], the pEC50 under setting [1] is 5.00 to 6.00.
On to `Cc1ccccc1S(=O)(=O)NC(=O)N[C@@H](Cc1ccccc1)C(=O)N1CCc2sccc2C1` [Example 186, (S)—N-((1-(6,7-dihydrothieno[3,2-c]pyridin-5(4H)-yl)-1-oxo-3-phenylpropan-2-yl)carbamoyl)-2-methylbenzenesulfonamide], for which the pEC50 reads like this: under setting [1], 5.00 to 6.00; under setting [2], 5.44.
For the molecule `Cc1ccccc1S(=O)(=O)NC(=O)N[C@@H](Cc1ccccc1)C(=O)N1C[C@@H]2C[C@H]1CO2` [Example 187, N—(((S)-1-((1S,4S)-2-oxa-5-azabicyclo[2.2.1]heptan-5-yl)-1-oxo-3-phenylpropan-2-yl)carbamoyl)-2-methylbenzenesulfonamide], the pEC50 under setting [2] is less than 4.48.
